Tested on: adult subjects with late-onset Pompe disease (LOPD)
Test: Study ATB200-03 (PROPEL): sitting % predicted FVC
Type: in vivo, human
Settings: for absolute decline in percent-predicted FVC: 52 weeks; for CHG to Week 52 in sitting % predicted FVC, LS Mean: MMRM, actual time point of assessments; for Sitting % predicted FVC CHG, LS means (SE): Week 52, ANCOVA
Method: The test for the primary endpoint was conducted first at the 1-sided 0.025 significance level, and if significant, the ordered key secondary endpoints were similarly tested at the same significance level. The statistical significance of the key secondary endpoints was interpreted following a hierarchical testing order, each at the 1-sided alpha level of 0.025. […] Primary analyses of efficacy were performed using the mixed-effect model for repeated measures (MMRM) for 6MWD in Intent-to-treat Observed Population (ITT) that includes all available, observed data without any missing data imputation (ITT-OBS) and analysis of covariance (ANCOVA) for all other endpoints in the Intent-to-Treat-Last Observation Carried Forward (ITT-LOCF) Population. A nonparametric randomization based ANCOVA was specified as the first sensitivity analysis for 6MWD and FVC. […] For the purposes of data presentation in this document, 2-sided p-values are reported hereafter, except as otherwise noted.

[1] = Baseline, ITT, ERT-naïve Population excluding Subject 4005-2511
[2] = Week 52-LOCF, ERT-experienced Population
[3] = Week 52-LOCF, ERT-naïve Population excluding Subject 4005-2511
[4] = Week 52-LOCF, ITT excluding Subject 4005-2511

Question: alglucosidase alfa [reference compound] was tested. Which “Sitting % Predicted FVC Absolute Value, Mean” value [1] did it give?
Answer: Its value is 79.07 % predicted.

Question: What about the “Sitting % predicted FVC Absolute Value, Median” value [1] of the same substance?
Answer: The value was 93.50 % predicted.

Question: What about the “FVC (% predicted) CFBL at Week 52” value (ERT switch (ERT-experienced) population) of the same substance?
Answer: Its value is −4.0 (0.9) % predicted.

Question: And the “FVC (% predicted) CFBL at Week 52” value (ERT treatment naive population)?
Answer: Its value is −3.6 % predicted.

Question: And the “FVC (% predicted) CFBL at Week 52” value (ERT treatment naive population, listed as Alglucosidase alfa)?
Answer: Its value is −3.6 (1.8) % predicted.

Question: And the “absolute decline in percent-predicted FVC” value (ERT-experienced)?
Answer: The value was 4.0%.

Question: What about the “mean change in sitting % predicted FVC from baseline to Week 52” value (ERT-naïve excluding Subject 4005-2511) of the same substance?
Answer: Its value is −3.6%.

Question: What about the “Change in sitting % predicted FVC baseline to Week 52, LS means (SE) from ANCOVA” value (ITT-LOCF, ERT-naïve Population excluding Subject 4005-2511) of the same substance?
Answer: The value was −2.54 (2.758) % predicted.

Question: What about the “CHG to Week 52 in sitting % predicted FVC, LS Mean” value (ITT-OBS excluding Subject 4005-2511 (overall)) of the same substance?
Answer: The value was −3.7.

Question: What about the “CHG to Week 52 in sitting % predicted FVC, LS Mean” value (ITT-OBS excluding Subject 4005-2511, ERT-naïve Subjects) of the same substance?
Answer: Its value is −2.4.

Question: And the “CHG to Week 52 in sitting % predicted FVC, LS Mean” value (ITT-OBS, ERT-experienced Subjects)?
Answer: The value was −3.8.

Question: What about the “Sitting % predicted FVC Absolute Value, Mean (SD)” value [2] of the same substance?
Answer: Its value is 63.47 (20.480) % predicted.

Question: What about the “Sitting % predicted FVC Absolute Value, Median” value [2] of the same substance?
Answer: The value was 62.00 % predicted.

Question: What about the “Sitting % predicted FVC CHG, Mean (SD)” value [2] of the same substance?
Answer: Its value is −4.02 (5.009) % predicted.

Question: And the “Sitting % predicted FVC CHG, Median” value [2]?
Answer: The value was −3.25 % predicted.

Question: And the “Sitting % Predicted FVC Absolute Value, Mean” value [3]?
Answer: Its value is 75.43 % predicted.

Question: What about the “Sitting % Predicted FVC CHG (change from baseline), Mean” value [3] of the same substance?
Answer: Its value is −3.64 % predicted.

Question: What about the “Sitting % Predicted FVC CHG (change from baseline), Median” value [3] of the same substance?
Answer: The value was −3.00 % predicted.

Question: What about the “Sitting % predicted FVC Absolute Value, Median” value [3] of the same substance?
Answer: Its value is 85.00 % predicted.

Question: What about the “Sitting % predicted FVC Absolute Value, Mean (SD)” value [4] of the same substance?
Answer: The value was 65.73 (21.109) % predicted.

Question: What about the “Sitting % predicted FVC Absolute Value, Median” value [4] of the same substance?
Answer: Its value is 69.00 % predicted.

Question: What about the “Sitting % predicted FVC CHG, Mean (SD)” value [4] of the same substance?
Answer: Its value is −3.95 (4.892) % predicted.

Question: And the “Sitting % predicted FVC CHG, Median” value [4]?
Answer: The value was −3.00 % predicted.

Question: And the “Sitting % predicted FVC CHG, LS means (SE)” value (ITT-LOCF excluding Subject 4005-2511)?
Answer: Its value is −3.70 (0.953) % predicted.

Question: What about the “Sitting % predicted FVC CHG, LS means (SE)” value (ITT-LOCF, ERT-experienced Population) of the same substance?
Answer: The value was −3.64 (1.019) % predicted.

Question: And the “FVC (% predicted) CFBL at Week 52” value (overall ERT switch + ERT naïve population)?
Answer: Its value is −4.0 (0.8) % predicted.

Question: And the “absolute decline in percent-predicted FVC” value (overall population)?
Answer: Its value is 4.0%.

— patent US20260041744A1, “Methods for Treating Pompe Disease” (Amicus Therapeutics, Inc., priority 2022, published 2026)
